The text below walks through data of ChEMBL document CHEMBL5291721, “A preclinical secondary pharmacology resource illuminates target-adverse drug reaction associations of marketed drugs” (Nat Commun, 2023).

Experiment [1] addresses T1, Alpha-1A adrenergic receptor (Homo sapiens, UniProt P35348).
T1 sequence (P35348 whole entry): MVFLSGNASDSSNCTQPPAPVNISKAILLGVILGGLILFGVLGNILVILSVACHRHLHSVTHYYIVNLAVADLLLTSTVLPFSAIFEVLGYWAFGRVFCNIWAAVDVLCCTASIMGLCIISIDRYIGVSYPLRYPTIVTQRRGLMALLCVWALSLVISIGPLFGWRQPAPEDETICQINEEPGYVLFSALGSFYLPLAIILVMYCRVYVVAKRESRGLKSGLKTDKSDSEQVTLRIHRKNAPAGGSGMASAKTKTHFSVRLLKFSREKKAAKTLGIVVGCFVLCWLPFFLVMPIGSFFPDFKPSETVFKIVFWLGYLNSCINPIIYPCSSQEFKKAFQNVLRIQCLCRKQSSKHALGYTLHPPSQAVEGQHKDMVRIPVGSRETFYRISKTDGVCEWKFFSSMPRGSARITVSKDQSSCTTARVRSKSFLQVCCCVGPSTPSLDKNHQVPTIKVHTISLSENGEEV
The format is functional, cell-based.

For experiment [2], the target named is T2, Muscarinic acetylcholine receptor M1 (Homo sapiens, UniProt P11229).
T2 sequence (P11229 whole entry): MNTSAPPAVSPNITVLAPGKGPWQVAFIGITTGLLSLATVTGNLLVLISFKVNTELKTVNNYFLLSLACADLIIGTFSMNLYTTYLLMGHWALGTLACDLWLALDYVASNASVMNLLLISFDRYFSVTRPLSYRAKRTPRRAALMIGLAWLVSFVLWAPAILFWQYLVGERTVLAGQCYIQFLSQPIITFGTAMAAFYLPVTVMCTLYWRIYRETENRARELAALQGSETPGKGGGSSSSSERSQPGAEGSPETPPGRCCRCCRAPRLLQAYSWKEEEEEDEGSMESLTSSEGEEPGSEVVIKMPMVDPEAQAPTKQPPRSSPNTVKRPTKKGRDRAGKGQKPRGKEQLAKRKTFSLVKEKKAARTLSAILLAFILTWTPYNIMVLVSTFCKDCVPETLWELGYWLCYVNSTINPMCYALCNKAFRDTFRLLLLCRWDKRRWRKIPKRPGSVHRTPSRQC
The format is functional, cell-based.

Experiment [3] concerns the target Sodium-dependent serotonin transporter (Homo sapiens, UniProt P31645).
The target of a further experiment is D(1A) dopamine receptor (Homo sapiens, UniProt P21728). The class given is functional, cell-based.
The target of experiment [4] is Gamma-aminobutyric acid receptor subunit alpha-1 (Rattus norvegicus, UniProt P62813).
Experiment [5] addresses Delta-type opioid receptor (Homo sapiens, UniProt P41143).
The target of experiment [6] is T3, Amine oxidase [flavin-containing] A (Homo sapiens, UniProt P21397).
T3 sequence (P21397 whole entry): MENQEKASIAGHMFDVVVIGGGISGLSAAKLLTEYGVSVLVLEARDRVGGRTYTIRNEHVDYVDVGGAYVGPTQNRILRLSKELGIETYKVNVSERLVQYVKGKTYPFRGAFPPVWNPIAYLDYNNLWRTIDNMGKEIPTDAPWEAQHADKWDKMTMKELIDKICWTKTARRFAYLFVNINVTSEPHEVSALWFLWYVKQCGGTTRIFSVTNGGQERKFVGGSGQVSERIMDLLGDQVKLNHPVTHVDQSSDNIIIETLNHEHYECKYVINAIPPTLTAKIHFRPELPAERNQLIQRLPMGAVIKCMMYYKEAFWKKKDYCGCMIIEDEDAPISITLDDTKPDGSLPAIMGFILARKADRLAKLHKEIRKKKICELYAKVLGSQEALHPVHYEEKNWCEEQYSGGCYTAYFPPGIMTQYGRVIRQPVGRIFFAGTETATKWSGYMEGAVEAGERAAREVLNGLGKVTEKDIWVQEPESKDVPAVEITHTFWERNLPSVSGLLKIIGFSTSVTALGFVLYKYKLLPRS
The format is functional.

The target in another experiment is Vasopressin V1a receptor (Homo sapiens, UniProt P37288).
The target in a further experiment is Vasopressin V2 receptor (Homo sapiens, UniProt P30518).
Experiment [7] has as its target Neuronal acetylcholine receptor subunit alpha-4 (Homo sapiens, UniProt P43681).
Experiment [8] deals with T4, Neuropeptide Y receptor type 1 (Homo sapiens, UniProt P25929).
T4 sequence (P25929 whole entry): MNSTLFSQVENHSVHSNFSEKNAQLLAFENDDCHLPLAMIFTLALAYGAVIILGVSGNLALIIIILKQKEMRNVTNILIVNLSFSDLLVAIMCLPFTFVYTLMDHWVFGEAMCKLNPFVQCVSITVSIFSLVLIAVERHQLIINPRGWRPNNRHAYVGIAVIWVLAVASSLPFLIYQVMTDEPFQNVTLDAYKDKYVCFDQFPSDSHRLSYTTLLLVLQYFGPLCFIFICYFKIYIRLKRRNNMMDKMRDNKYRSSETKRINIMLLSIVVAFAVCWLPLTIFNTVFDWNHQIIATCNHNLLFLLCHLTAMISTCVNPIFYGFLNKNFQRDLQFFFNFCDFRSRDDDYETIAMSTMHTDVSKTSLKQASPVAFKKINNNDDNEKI

Experiment [9] deals with T5, Equilibrative nucleoside transporter 1 (Homo sapiens, UniProt Q99808).
T5 sequence (Q99808 whole entry): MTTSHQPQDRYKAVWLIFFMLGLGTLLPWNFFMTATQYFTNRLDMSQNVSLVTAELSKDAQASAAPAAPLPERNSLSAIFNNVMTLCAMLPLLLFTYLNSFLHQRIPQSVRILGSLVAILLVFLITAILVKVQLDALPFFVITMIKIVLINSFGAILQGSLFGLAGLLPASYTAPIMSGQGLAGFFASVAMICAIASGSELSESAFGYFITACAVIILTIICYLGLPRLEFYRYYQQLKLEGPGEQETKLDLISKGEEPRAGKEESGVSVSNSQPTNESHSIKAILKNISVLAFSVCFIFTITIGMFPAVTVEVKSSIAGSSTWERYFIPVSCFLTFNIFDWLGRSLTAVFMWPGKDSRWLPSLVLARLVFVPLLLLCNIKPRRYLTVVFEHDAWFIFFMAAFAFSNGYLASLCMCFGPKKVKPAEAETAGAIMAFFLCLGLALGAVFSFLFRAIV
Further: assay procedure not described here.

Chain of D(1A) dopamine receptor (P21728 whole entry): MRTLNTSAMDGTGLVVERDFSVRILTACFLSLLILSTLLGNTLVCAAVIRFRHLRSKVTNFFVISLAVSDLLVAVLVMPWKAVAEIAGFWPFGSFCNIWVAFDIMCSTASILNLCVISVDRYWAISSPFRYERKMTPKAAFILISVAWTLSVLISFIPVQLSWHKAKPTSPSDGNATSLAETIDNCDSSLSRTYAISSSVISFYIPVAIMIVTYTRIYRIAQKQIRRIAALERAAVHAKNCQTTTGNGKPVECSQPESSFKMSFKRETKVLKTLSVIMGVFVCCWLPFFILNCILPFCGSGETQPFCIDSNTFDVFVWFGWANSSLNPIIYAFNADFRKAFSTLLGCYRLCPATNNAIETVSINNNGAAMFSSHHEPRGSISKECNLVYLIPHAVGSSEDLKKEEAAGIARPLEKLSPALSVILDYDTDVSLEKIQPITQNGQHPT
Chain of Gamma-aminobutyric acid receptor subunit alpha-1 (P62813 whole entry): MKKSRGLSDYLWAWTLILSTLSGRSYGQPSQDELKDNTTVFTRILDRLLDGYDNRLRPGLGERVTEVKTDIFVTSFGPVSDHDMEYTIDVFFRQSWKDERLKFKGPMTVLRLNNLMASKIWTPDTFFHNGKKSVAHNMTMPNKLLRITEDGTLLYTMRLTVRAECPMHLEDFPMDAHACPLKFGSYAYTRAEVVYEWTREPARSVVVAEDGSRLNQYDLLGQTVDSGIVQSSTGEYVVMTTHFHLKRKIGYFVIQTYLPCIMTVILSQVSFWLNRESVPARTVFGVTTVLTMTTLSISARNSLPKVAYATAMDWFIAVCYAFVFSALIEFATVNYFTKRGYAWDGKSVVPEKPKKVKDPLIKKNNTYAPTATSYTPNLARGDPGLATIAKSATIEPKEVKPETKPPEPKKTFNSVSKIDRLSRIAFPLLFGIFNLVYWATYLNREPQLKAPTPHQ
Chain of Neuronal acetylcholine receptor subunit alpha-4 (P43681 whole entry): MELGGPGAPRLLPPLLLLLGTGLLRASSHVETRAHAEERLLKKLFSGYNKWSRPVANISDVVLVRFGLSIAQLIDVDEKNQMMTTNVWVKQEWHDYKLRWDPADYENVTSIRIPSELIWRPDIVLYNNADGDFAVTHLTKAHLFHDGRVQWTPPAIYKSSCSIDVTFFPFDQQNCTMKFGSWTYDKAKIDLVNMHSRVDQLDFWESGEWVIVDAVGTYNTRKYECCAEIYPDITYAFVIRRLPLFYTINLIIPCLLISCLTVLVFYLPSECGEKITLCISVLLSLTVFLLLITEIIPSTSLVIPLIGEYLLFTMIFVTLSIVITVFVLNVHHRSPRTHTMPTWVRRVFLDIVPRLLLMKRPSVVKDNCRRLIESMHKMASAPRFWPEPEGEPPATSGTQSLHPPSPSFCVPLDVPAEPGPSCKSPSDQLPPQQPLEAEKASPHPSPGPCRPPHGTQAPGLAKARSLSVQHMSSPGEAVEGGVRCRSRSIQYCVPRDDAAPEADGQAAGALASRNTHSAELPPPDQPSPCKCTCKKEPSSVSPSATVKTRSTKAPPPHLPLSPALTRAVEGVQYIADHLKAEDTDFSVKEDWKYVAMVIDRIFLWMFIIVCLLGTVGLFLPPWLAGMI
Chain of Vasopressin V2 receptor (P30518 whole entry): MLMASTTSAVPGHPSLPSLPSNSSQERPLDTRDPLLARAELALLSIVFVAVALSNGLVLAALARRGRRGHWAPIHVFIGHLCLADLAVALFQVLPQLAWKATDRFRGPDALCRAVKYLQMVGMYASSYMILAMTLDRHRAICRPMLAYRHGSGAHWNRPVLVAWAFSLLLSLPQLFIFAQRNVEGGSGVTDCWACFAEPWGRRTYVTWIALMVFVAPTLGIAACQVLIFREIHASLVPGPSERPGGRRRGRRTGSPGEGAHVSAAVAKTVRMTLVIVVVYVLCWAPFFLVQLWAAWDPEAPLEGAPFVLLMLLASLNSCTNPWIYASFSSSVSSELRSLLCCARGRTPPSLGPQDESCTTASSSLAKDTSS
Chain of Sodium-dependent serotonin transporter (P31645 whole entry): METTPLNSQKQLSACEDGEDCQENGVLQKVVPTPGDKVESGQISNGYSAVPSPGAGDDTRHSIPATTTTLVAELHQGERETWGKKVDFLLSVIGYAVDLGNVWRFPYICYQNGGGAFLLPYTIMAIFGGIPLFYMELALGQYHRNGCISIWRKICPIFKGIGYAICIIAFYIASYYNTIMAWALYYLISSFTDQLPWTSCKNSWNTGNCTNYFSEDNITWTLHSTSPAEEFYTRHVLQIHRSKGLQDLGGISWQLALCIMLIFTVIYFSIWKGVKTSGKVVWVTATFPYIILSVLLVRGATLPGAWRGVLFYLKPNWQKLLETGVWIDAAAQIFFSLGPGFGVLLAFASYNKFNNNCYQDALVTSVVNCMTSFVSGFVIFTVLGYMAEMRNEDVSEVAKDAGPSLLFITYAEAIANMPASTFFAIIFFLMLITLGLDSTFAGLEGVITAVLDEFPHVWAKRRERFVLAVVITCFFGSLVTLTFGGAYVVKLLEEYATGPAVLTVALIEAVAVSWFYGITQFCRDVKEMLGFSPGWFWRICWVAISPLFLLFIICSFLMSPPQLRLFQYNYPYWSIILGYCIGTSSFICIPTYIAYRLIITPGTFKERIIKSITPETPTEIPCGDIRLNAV
Chain of Delta-type opioid receptor (P41143 whole entry): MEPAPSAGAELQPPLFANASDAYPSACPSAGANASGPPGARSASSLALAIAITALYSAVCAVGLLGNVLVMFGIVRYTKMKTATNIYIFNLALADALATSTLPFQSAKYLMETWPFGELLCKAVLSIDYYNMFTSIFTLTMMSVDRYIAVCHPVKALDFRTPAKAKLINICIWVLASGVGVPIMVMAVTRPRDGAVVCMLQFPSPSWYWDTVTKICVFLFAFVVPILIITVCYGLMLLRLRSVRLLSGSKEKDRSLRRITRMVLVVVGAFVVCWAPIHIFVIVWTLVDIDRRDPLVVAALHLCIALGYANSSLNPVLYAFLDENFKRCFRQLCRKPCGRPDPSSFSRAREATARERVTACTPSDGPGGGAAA
Chain of Vasopressin V1a receptor (P37288 whole entry): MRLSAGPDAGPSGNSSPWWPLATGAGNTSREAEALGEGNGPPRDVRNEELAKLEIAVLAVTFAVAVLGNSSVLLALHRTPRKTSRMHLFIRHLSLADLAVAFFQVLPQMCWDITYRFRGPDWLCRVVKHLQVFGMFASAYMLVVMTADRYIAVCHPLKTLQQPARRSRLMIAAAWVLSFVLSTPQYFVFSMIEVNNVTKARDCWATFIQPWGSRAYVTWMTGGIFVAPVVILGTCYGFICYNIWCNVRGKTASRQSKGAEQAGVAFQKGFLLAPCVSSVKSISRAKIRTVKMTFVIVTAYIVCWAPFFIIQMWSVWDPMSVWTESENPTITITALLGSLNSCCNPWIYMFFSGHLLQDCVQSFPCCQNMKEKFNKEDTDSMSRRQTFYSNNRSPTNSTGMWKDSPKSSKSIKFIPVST

Consider `O=C(O)COc1nn(Cc2ccccc2)c2ccccc12` [BENDAZAC], for which the AC50 in [1], in experiment [2] and in [3] was greater than 30 µM in each case.
In the case of `CN(CC(=O)O)C(=N)N` [CREATINE], the concentration at half-maximal activity (AC50) in experiment [1], in experiment [2] and in experiment [3] was greater than 30 µM in each case.
Take `CCC(=O)O[C@@H](O[P@](=O)(CCCCc1ccccc1)CC(=O)N1C[C@H](C2CCCCC2)C[C@H]1C(=O)O)C(C)C` [FOSINOPRIL]: the AC50 (at D(1A) dopamine receptor; in [4]; in [5]; in [3]; in experiment [6]) was greater than 30 µM throughout.
Take `CC1(C)O[C@@H]2C[C@H]3[C@@H]4CCC5=CC(=O)CC[C@]5(C)[C@@]4(F)[C@@H](O)C[C@]3(C)[C@]2(C(=O)CCl)O1` [HALCINONIDE]: the AC50 in experiment [1] and in experiment [4] was greater than 30 µM each time.
With `Cc1cc2c(OCC(O)CNC(C)C)cccc2[nH]1` (stereo unspecified) [MEPINDOLOL], the AC50 in experiment [1], in experiment [2] and in [3] was greater than 30 µM in each case.
On to `CC(=O)/N=c1/sc(S(N)(=O)=O)nn1C` [METHAZOLAMIDE], for which the AC50 was greater than 30 µM in [1]; greater than 10 µM on Vasopressin V1a receptor; greater than 10 µM on Vasopressin V2 receptor; greater than 30 µM in experiment [2]; greater than 10 µM in experiment [7]; greater than 10 µM at D(1A) dopamine receptor. The AC50 in experiment [8] is greater than 10 µM; in experiment [5] it was greater than 30 µM; in [9], greater than 10 µM; in [3], greater than 30 µM; in [6] it was greater than 10 µM.
As to `CCOc1ccc2ccccc2c1C(=O)N[C@@H]1C(=O)N2[C@@H]1SC(C)(C)[C@@H]2C(=O)O` [NAFCILLIN], the AC50 in [1], in [2] and in experiment [3] was greater than 30 µM each time.
As to `CC(=O)Oc1ccccc1C(=O)Nc1ncc([N+](=O)[O-])s1` [NITAZOXANIDE], the AC50 was greater than 10 µM in experiment [1]; 17 µM on Vasopressin V1a receptor; 14 µM on Vasopressin V2 receptor; greater than 30 µM in experiment [2]; 8.8 µM in experiment [7]; greater than 30 µM on D(1A) dopamine receptor. The AC50 is 17 µM in [8]; 5 µM in [5]; 1.9 µM in [9]; greater than 30 µM in [3]; 7.5 µM in experiment [6].
Turning to `CCCCCCCCCCC[C@@H](C[C@@H]1OC(=O)[C@H]1CCCCCC)OC(=O)[C@H](CC(C)C)NC=O` [ORLISTAT], the AC50 in experiment [1], in experiment [2] and in [3] was greater than 30 µM each time.
Regarding `O=C1[C@H]2CCCC[C@H]2C(=O)N1CCCCN1CCN(c2nsc3ccccc23)CC1` [PEROSPIRONE], the AC50 in experiment [1] was greater than 30 µM; in experiment [2], greater than 30 µM; in experiment [3], 3.73 µM.
Consider `CN(C)CCC(c1ccccc1)c1ccccn1` (stereo unspecified) [PHENIRAMINE], for which the values for the AC50 in [1], in experiment [2] and in experiment [3] were greater than 30 µM, greater than 30 µM and 7.98 µM, respectively.
With `CC(C)(C)C(=O)NCCCC(=O)O` [PIVAGABINE], the AC50 in experiment [1], in experiment [2] and in [3] was greater than 30 µM each time.
Consider `CC(C)[N+](C)(CCOC(=O)C1c2ccccc2Oc2ccccc21)C(C)C` [PROPANTHELINE], for which the AC50 in experiment [1], in experiment [2] and in experiment [3] was greater than 30 µM each time.
In the case of `CNC(=O)c1cc(Oc2ccc(NC(=O)Nc3ccc(Cl)c(C(F)(F)F)c3)c(F)c2)ccn1` [REGORAFENIB], the AC50 in experiment [7] is greater than 30 µM; on D(1A) dopamine receptor, greater than 30 µM; in [4], greater than 30 µM; in experiment [5] it was greater than 30 µM; in [3] it was greater than 30 µM; in experiment [6] it was 9.05 µM.
As to `CN(C)C(=O)c1nc(CNC(=O)CN)n(-c2ccc(Cl)cc2C(=O)c2ccccc2Cl)n1` [RILMAZAFONE], the AC50 in [1], in [2] and in experiment [3] was greater than 30 µM each time.
As for `NC(=O)NS(=O)(=O)c1ccc(N)cc1` [SULFACARBAMIDE], the AC50 in experiment [1], in [2] and in experiment [3] was greater than 30 µM in each case.
In the case of `CCCCNc1ccc(C(=O)OCCN(C)C)cc1` [TETRACAINE], the AC50 in experiment [1] is greater than 30 µM; at Vasopressin V1a receptor, greater than 10 µM; on Vasopressin V2 receptor, greater than 30 µM; in [7], greater than 10 µM; on D(1A) dopamine receptor it was greater than 10 µM; in [4], greater than 30 µM. In addition, the AC50 was greater than 30 µM in [8], greater than 10 µM in experiment [5], greater than 30 µM in experiment [9] and 0.97 µM in experiment [6].
As for `Cn1c(=O)c2[nH]cnc2n(C)c1=O` [THEOPHYLLINE], the AC50 was greater than 30 µM in experiment [1]; greater than 30 µM at Vasopressin V1a receptor; greater than 30 µM on Vasopressin V2 receptor; greater than 10 µM in experiment [7]; greater than 10 µM at D(1A) dopamine receptor; greater than 30 µM in experiment [4]. Further, the AC50 is greater than 30 µM in experiment [8], greater than 30 µM in experiment [5], greater than 30 µM in [9] and greater than 10 µM in [6].
For `CN1CCN(CCCN2c3ccccc3Sc3ccc(S(=O)(=O)N(C)C)cc32)CC1` [THIOPROPERAZINE], the AC50 at D(1A) dopamine receptor is greater than 30 µM; in experiment [4] it was greater than 30 µM; in experiment [5] it was 29 µM; in experiment [3] it was 17.3 µM; in experiment [6], greater than 30 µM.
On to `CCCCCCCCCCCCCCCC(=O)OC/C=C(C)/C=C/C=C(C)/C=C/C1=C(C)CCCC1(C)C` [VITAMIN A PALMITATE], for which the AC50 in [1], in experiment [2] and in experiment [3] was greater than 30 µM each time.

For orientation: AC50 means the concentration giving half of the maximal activity seen. A low value points to activity at low concentration.
